In patent EP4656642A1, “ESTROGEN RECEPTOR PROTEOLYSIS TARGETING CHIMERA COMPOUND AND USE THEREOF” (GAN & LEE PHARM CO., LTD, priority 2023, dated 2024):

Columns and labels:
Type in all cases: cell-based
[1] = system: T-47D cells; test: Inhibition of cell proliferation in T-47D cells (CCK-8, 6 days); conditions: 6 days of treatment
Summary of the method: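 Viability read-out was CCK-8 after 6 days of compound treatment (37 °C, 5% CO2) across graded concentrations. Cells were T-47D seeded at 3,000 per well in 1640 medium plus 10% FBS. IC50 was calculated against proliferation.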

[2] = system: MCF-7 cells; test: Inhibition of cell proliferation of MCF-7 cells (CCK-8, 9 days)
Summary of the method: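 Read-out was CCK-8 viability after 9-day continuous exposure (37°C, 5% CO2) of MCF-7 cells plated at 800/well in 10% FBS DMEM across several compound concentrations. Values are proliferation IC50s.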

[3] = biological target: T1, ERα (Homo sapiens, UniProt P03372); test: Degradation of ERα in MCF-7 cells (immunoblotting, 4 h)
T1 sequence (P03372 1-595): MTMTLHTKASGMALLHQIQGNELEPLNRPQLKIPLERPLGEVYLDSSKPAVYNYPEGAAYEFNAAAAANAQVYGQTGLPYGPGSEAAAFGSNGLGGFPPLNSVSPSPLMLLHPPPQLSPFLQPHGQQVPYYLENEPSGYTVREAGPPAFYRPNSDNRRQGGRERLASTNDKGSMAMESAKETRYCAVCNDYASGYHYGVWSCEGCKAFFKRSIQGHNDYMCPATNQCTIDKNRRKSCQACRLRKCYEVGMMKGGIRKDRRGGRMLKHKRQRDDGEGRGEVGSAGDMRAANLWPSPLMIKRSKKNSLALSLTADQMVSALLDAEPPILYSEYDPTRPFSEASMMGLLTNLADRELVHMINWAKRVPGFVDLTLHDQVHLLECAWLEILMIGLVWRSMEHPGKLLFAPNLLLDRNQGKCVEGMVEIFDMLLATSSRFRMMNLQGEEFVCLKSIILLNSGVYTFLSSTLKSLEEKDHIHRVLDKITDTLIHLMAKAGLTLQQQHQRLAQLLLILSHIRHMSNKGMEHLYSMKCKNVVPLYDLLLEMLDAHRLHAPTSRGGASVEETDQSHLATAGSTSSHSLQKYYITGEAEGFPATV
Summary of the method: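 Degradation rate reflects ERα band intensity, corrected to an internal reference protein, relative to control. Values come from Western blotting of lysates from MCF-7 cells exposed 4 h at 37°C to compounds at final concentrations of 0.15-1000nM.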

[4] = biological target: T1, ERα; test: Degradation of ERα in T-47D cells (immunoblotting, 4 h); design: host or cells: T-47D
Summary of the method: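 ERα protein levels were assessed by immunoblot of RIPA lysates (with protease inhibitor) after 4 h exposure at 37°C. Compound was added in DMSO to T-47D cells at final concentrations of 0.15-1000 nM.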

[5] = treated for 9 days, CCK-8 kit (Table 6)

| IC50 ([1]; Table 3) [nM] | IC50 [2, 5] [nM] | Degradation rate (%) of ERα in MCF-7 cells ([3]; 1nM compound) [%] | Degradation rate (%) of ERα in MCF-7 cells ([3]; 10nM compound) [%] | Degradation rate (%) of ERα in T-47D cells ([4]; 1nM compound) [%] | Degradation rate (%) of ERα in T-47D cells ([4]; 10nM compound) [%] | IC50 ([1]; Table 2) [nM] | IC50 ([2]; 9 days of treatment, CCK-8, Table 5) [nM] | SMILES |
| --- | --- | --- | --- | --- | --- | --- | --- | --- |
| 1.61 | 132 | 30 | 58 | 73 | 85 | – | – | O=C1CCC(N2Cc3c(ccc4c3OCC43CCN(CC(=O)N4CC5(CCN(c6ccc([C@@H]7c8ccc(O)cc8CC[C@@H]7c7ccccc7)cc6)CC5)C4)CC3)C2=O)C(=O)N1 (stereo partly drawn) [K5] |
| 1.41 | 10.6 | 55 | 64 | 63 | 79 | – | – | O=C1CCC(N2Cc3c(ccc4c3OCC43CCN(C(=O)C4CCN(C5CCN(c6ccc([C@@H]7c8ccc(O)cc8CC[C@@H]7c7ccccc7)cc6)CC5)CC4)CC3)C2=O)C(=O)N1 (stereo partly drawn) [K7] |
| 2.07 | 10.5 | 44 | 64 | 67 | 85 | – | – | O=C1CCC(N2Cc3c(ccc4c3OCC43CCN(C(=O)CN4CC5(CCN(c6ccc([C@@H]7c8ccc(O)cc8CC[C@@H]7c7ccccc7)cc6)CC5)C4)CC3)C2=O)C(=O)N1 (stereo partly drawn) [K8] |
| 1.54 | 70 | 14 | 35 | 23 | 66 | – | – | O=C1CCC(N2Cc3cc4c(cc3C2=O)OCC42CCN(C3CCC4(CC3)CN(c3ccc([C@@H]5c6ccc(O)cc6CC[C@@H]5c5ccccc5)cc3)C4)CC2)C(=O)N1 (stereo partly drawn) [K17] |
| 5.34 | 48.6 | 32 | 63 | 21 | 56 | – | – | CC1CN(C2CCN(c3ccc([C@@H]4c5ccc(O)cc5CC[C@@H]4c4ccccc4)cc3)CC2)CCC1N1CCC2(CC1)COc1c2ccc2c1CN(C1CCC(=O)NC1=O)C2=O (stereo partly drawn) [K19] |
| 2.59 | 19.6 | 37 | 70 | 4 | 44 | – | – | CC1CN(C2CC3(CCN(c4ccc([C@@H]5c6ccc(O)cc6CC[C@@H]5c5ccccc5)cc4)CC3)C2)CCC1N1CCC2(CC1)COc1c2ccc2c1CN(C1CCC(=O)NC1=O)C2=O (stereo partly drawn) [K20] |
| 1.04 | 5.67 | 57 | 78 | 61 | 86 | – | – | CC1CN(C(=O)C2CCN(c3ccc(C4c5ccc(O)cc5CCC4c4ccccc4)cc3)CC2)CCC1N1CCC2(CC1)COc1c2ccc2c1CN(C1CCC(=O)NC1=O)C2=O (stereo not drawn) [K23] |
| 1.44 | 32.5 | 31 | 46 | 48 | 72 | – | – | O=C1CCC(N2C(=O)c3ccc4c(c3C2=O)OCC42CCN(C(=O)CN3CCC4(CCN(c5ccc([C@@H]6c7ccc(O)cc7CC[C@@H]6c6ccccc6)cc5)CC4)C3)CC2)C(=O)N1 (stereo partly drawn) [K24] |
| 1.12 | 48.2 | 67 | 88 | 56 | 87 | – | – | CCNC(=O)[C@H]1CC(N2CCC3(CC2)COc2c3ccc3c2CN(C2CCC(=O)NC2=O)C3=O)CCN1C1CC2(CCN(c3ccc([C@@H]4c5ccc(O)cc5CC[C@@H]4c4ccccc4)cc3)CC2)C1 (stereo partly drawn) [K26] |
| 1.05 | 33.1 | 71 | 86 | 69 | 88 | – | – | O=C1CCC(N2Cc3c(ccc4c3OCC43CCN(C4CCN(C5CC6(CCN(c7ccc([C@@H]8c9ccc(O)cc9CC[C@@H]8c8ccccc8)cc7)CC6)C5)[C@@H](C(=O)NC5CC5)C4)CC3)C2=O)C(=O)N1 (stereo partly drawn) [K27] |
| 41 | 590 | -3 | 64 | 54 | 84 | – | – | C[C@@H]1Cc2c(ccc3[nH]ncc23)C(c2ccc(N3CCC4(CCC(N5CCC6(CC5)COc5c6ccc6c5CN(C5CCC(=O)NC5=O)C6=O)CC4)CC3)cn2)N1CC(F)(F)F (stereo partly drawn) [K41] |
| – | – | -2 | -29 | -9 | -45 | 5.2 | 130 | O=C1CCC(N2Cc3ccc4c(c3C2=O)OC2(CC4)CCN(C3CCC4(CC3)CCN(c3ccc([C@@H]5c6ccc(O)cc6CC[C@@H]5c5ccccc5)cc3)CC4)CC2)C(=O)N1 (stereo partly drawn) [L1] |
| 5 | 130 | 23 | 44 | 25 | 54 | – | – | O=C1CCC(N2Cc3ccc4c(c3C2=O)OCC2(CCN(C3CCC5(CC3)CCN(c3ccc([C@@H]6c7ccc(O)cc7CC[C@@H]6c6ccccc6)cc3)CC5)CC2)C4)C(=O)N1 (stereo partly drawn) [L3] |
| 13.5 | 990 | 27 | 27 | 32 | 21 | – | – | O=C1CCC(N2C(=O)c3ccc4c(c3C2=O)OC2(CC4)CCN(C3CCC4(CC3)CN(c3ccc([C@@H]5c6ccc(O)cc6CC[C@@H]5c5ccccc5)cc3)C4)CC2)C(=O)N1 (stereo partly drawn) [L8] |
| 17.9 | 925 | -11 | -6 | 14 | 29 | – | – | O=C1CCC(N2Cc3ccc4c(c3C2=O)CC2(CCN(C3CCC5(CC3)CN(c3ccc([C@@H]6c7ccc(O)cc7CC[C@@H]6c6ccccc6)cc3)C5)CC2)CO4)C(=O)N1 (stereo partly drawn) [L10] |
| 4 | 5 | 37 | 60 | 14 | 69 | – | – | O=C1CCC(N2Cc3c(ccc4c3OCC43CCN(C4CCC5(CC4)CN(c4ccc([C@@H]6c7ccc(O)cc7CC[C@@H]6c6ccccc6)cc4)C5)CC3)C2=O)C(=O)N1 (stereo partly drawn) [L11] |
| 8.02 | 19 | 18 | 57 | 23 | 71 | – | – | O=C1CCC(N2Cc3c(ccc4c3OCC43CCN(C4CCC5(CC4)CCN(c4ccc([C@@H]6c7ccc(O)cc7CC[C@@H]6c6ccccc6)cc4)CC5)CC3)C2=O)C(=O)N1 (stereo partly drawn) [L15] |
| 7.09 | 39 | 29 | 51 | 29 | 64 | – | – | O=C1CCC(N2Cc3c(ccc4c3OCC43CCN(C4CC5(CCN(c6ccc([C@@H]7c8ccc(O)cc8CC[C@@H]7c7ccccc7)cc6)CC5)C4)CC3)C2=O)C(=O)N1 (stereo partly drawn) [L16] |
